Source: patent EP0726261A1, “Herbidical 1,2,4 thiadiazoles” (American Cyanamid Company, priority 1995, dated 1996)

Tests used:
Assay type in all cases: in vivo
Triticum aestivum [1] = assay: Preemergence herbicidal activity (Example 67); parameters: herbicide rating, TRZAW: scale not given here; conditions: pre; 800 g/ha; rated about 1-3 weeks after treatment
Protocol: (§1) Herbicidal evaluation of compounds of the invention is conducted on the following plant species:
(§2) The soil is a prepared horticultural substrate containing 30% peat, 20% volcanic clay, 30% bark residues and 20% polyamide/styromull in a 1:3 mixture with loamy sand. Test solutions are prepared by dissolving the test compound in acetone containing 0.5% of an alkylphenol/ethylene oxide condensate under the trademark, TRITON® X-155, and diluting with water as needed. The test solutions are applied as a spray to the 3-6 week old seedling plants at dose rates corresponding to 800g/ha in a volume equivalent to 400 L/ha. A pneumatic spraying device employing a Teejet nozzle SS 8002E operating at 3 bar is used for a predetermined time. After spraying, the treated plants are placed on greenhouse benches and cared for in a manner commensurate with conventional greenhouse practice. After 10-21 days, the treated plants are evaluated and rated according to the rating system provided below.
(§3) The soil surface is then sprayed with test solutions as described in the postemergence evaluation hereinabove. After spraying, the treated cups are placed on greenhouse benches and cared for in the manner commensurate with conventional greenhouse practice. About 1-3 weeks after treatment the cups are evaluated and rated according to the rating system provided hereinabove.

Hordeum vulgare [2] = assay: Preemergence herbicidal activity (Example 67); parameters: herbicide rating, HORVW: scale not given here; conditions: pre; 800 g/ha; rated about 1-3 weeks after treatment
Protocol: as §1, §2, §3

Alopecurus myosuroides [3] = assay: Preemergence herbicidal activity (Example 67); parameters: herbicide rating, ALOMY: scale not given here; conditions: pre; 800 g/ha; rated about 1-3 weeks after treatment
Protocol: as §1, §2, §3

Setaria viridis [4] = assay: Preemergence herbicidal activity (Example 67); parameters: herbicide rating, SETVI: scale not given here; conditions: pre; 800 g/ha; rated about 1-3 weeks after treatment
Protocol: as §1, §2, §3

Abutilon theophrasti [5] = assay: Preemergence herbicidal activity (Example 67); conditions: pre; 800 g/ha; rated about 1-3 weeks after treatment
Protocol: as §1, §2, §3

Amaranthus retroflexus [6] = assay: Preemergence herbicidal activity (Example 67); conditions: pre; 800 g/ha; rated about 1-3 weeks after treatment
Protocol: as §1, §2, §3

Chenopodium album [7] = assay: Preemergence herbicidal activity (Example 67); conditions: pre; 800 g/ha; rated about 1-3 weeks after treatment
Protocol: as §1, §2, §3

Galium aparine [8] = assay: Preemergence herbicidal activity (Example 67); conditions: pre; 800 g/ha; rated about 1-3 weeks after treatment
Protocol: as §1, §2, §3

Helianthus annuus [9] = assay: Preemergence herbicidal activity (Example 67); conditions: pre; 800 g/ha; rated about 1-3 weeks after treatment
Protocol: as §1, §2, §3

Ipomoea hederacea [10] = assay: Preemergence herbicidal activity (Example 67); conditions: pre; 800 g/ha; rated about 1-3 weeks after treatment
Protocol: as §1, §2, §3

Veronica persica [11] = assay: Preemergence herbicidal activity (Example 67); conditions: pre; 800 g/ha; rated about 1-3 weeks after treatment
Protocol: as §1, §2, §3

Zea mays [12] = assay: Preemergence herbicidal activity (Example 67); conditions: pre; 800 g/ha; rated about 1-3 weeks after treatment
Protocol: as §1, §2, §3

Abutilon theophrasti [13] = assay: Postemergence herbicidal activity (Example 67); conditions: pos; 800 g/ha; rated after 10-21 days
Protocol: as §1, §2

Alopecurus myosuroides [14] = assay: Postemergence herbicidal activity (Example 67); conditions: pos; 800 g/ha; rated after 10-21 days
Protocol: as §1, §2

Amaranthus retroflexus [15] = assay: Postemergence herbicidal activity (Example 67); conditions: pos; 800 g/ha; rated after 10-21 days
Protocol: as §1, §2

Chenopodium album [16] = assay: Postemergence herbicidal activity (Example 67); conditions: pos; 800 g/ha; rated after 10-21 days
Protocol: as §1, §2

Galium aparine [17] = assay: Postemergence herbicidal activity (Example 67); conditions: pos; 800 g/ha; rated after 10-21 days
Protocol: as §1, §2

Helianthus annuus [18] = assay: Postemergence herbicidal activity (Example 67); conditions: pos; 800 g/ha; rated after 10-21 days
Protocol: as §1, §2

Hordeum vulgare [19] = assay: Postemergence herbicidal activity (Example 67); conditions: pos; 800 g/ha; rated after 10-21 days
Protocol: as §1, §2

Ipomoea hederacea [20] = assay: Postemergence herbicidal activity (Example 67); conditions: pos; 800 g/ha; rated after 10-21 days
Protocol: as §1, §2

Setaria viridis [21] = assay: Postemergence herbicidal activity (Example 67); conditions: pos; 800 g/ha; rated after 10-21 days
Protocol: as §1, §2

Triticum aestivum [22] = assay: Postemergence herbicidal activity (Example 67); conditions: pos; 800 g/ha; rated after 10-21 days
Protocol: as §1, §2

Veronica persica [23] = assay: Postemergence herbicidal activity (Example 67); conditions: pos; 800 g/ha; rated after 10-21 days
Protocol: as §1, §2

Zea mays [24] = assay: Postemergence herbicidal activity (Example 67); conditions: pos; 800 g/ha; rated after 10-21 days
Protocol: as §1, §2

| Compound | herbicide rating, TRZAW (Triticum aestivum [1]) | herbicide rating, HORVW (Hordeum vulgare [2]) | herbicide rating, ALOMY (Alopecurus myosuroides [3]) | herbicide rating, SETVI (Setaria viridis [4]) | herbicide rating, ABUTH (Abutilon theophrasti [5]) | herbicide rating, AMARE (Amaranthus retroflexus [6]) | herbicide rating, CHEAL (Chenopodium album [7]) | herbicide rating, GALAP (Galium aparine [8]) | herbicide rating, HELAN (Helianthus annuus [9]) | herbicide rating, IPOHE (Ipomoea hederacea [10]) | herbicide rating, VERPE (Veronica persica [11]) | herbicide rating, ZEAMX (Zea mays [12]) | herbicide rating, ABUTH (Abutilon theophrasti [13]) | herbicide rating, ALOMY (Alopecurus myosuroides [14]) | herbicide rating, AMARE (Amaranthus retroflexus [15]) | herbicide rating, CHEAL (Chenopodium album [16]) | herbicide rating, GALAP (Galium aparine [17]) | herbicide rating, HELAN (Helianthus annuus [18]) | herbicide rating, HORVW (Hordeum vulgare [19]) | herbicide rating, IPOHE (Ipomoea hederacea [20]) | further results |
| --- | --- | --- | --- | --- | --- | --- | --- | --- | --- | --- | --- | --- | --- | --- | --- | --- | --- | --- | --- | --- | --- |
| CC(NC(=O)c1nsc(-c2cccc(C(F)(F)F)c2)n1)c1cccs1 (racemic) [Example 3, (R/S)-5-(3-Trifluoromethylphenyl)-[1,2,4]thiadiazole-3-carboxylic acid, [1-(2-thienyl)ethyl]amide] | 0 | 0 | 0 | 0 | 0 | 0 | 3 (16-29%) | 0 | 0 | 0 | 0 | 0 | 1 (1-5%) | 3 (16-29%) | 2 (6-15%) | 4 (30-44%) | 2 (6-15%) | 4 (30-44%) | 2 (6-15%) | 3 (16-29%) | herbicide rating, SETVI (Setaria viridis [21]): 8 (91-99%); herbicide rating, TRZAW (Triticum aestivum [22]): 2 (6-15%); herbicide rating, VERPE (Veronica persica [23]): 0; herbicide rating, ZEAMX (Zea mays [24]): 1 (1-5%) |
| CCCCc1nsc(C(=O)NC(C)c2cccs2)n1 (racemic) [Example 25] | 0 | 0 | 0 | 0 | 0 | 0 | 6 (65-79%) | 0 | 0 | 0 | 4 (30-44%) | 0 | 6 (65-79%) | 4 (30-44%) | 3 (16-29%) | 6 (65-79%) | 6 (65-79%) | 7 (80-90%) | 3 (16-29%) | 5 (45-64%) | herbicide rating, SETVI (Setaria viridis [21]): 8 (91-99%); herbicide rating, TRZAW (Triticum aestivum [22]): 2 (6-15%); herbicide rating, VERPE (Veronica persica [23]): 3 (16-29%); herbicide rating, ZEAMX (Zea mays [24]): 0 |
| CC(NC(=O)c1nc(-c2ccc(Cl)cc2)ns1)c1cccs1 (racemic) [Example 26] | 0 | 0 | 0 | 0 | 0 | 0 | 3 (16-29%) | 0 | 0 | 0 | 2 (6-15%) | 0 | 5 (45-64%) | 2 (6-15%) | 6 (65-79%) | 5 (45-64%) | 5 (45-64%) | 7 (80-90%) | 3 (16-29%) | 6 (65-79%) | herbicide rating, SETVI (Setaria viridis [21]): 5 (45-64%); herbicide rating, TRZAW (Triticum aestivum [22]): 2 (6-15%); herbicide rating, VERPE (Veronica persica [23]): 4 (30-44%); herbicide rating, ZEAMX (Zea mays [24]): 4 (30-44%) |
| CC(NC(=O)c1nc(C=Cc2ccccc2)ns1)c1cccs1 (racemic) [Example 29] | 0 | 0 | 0 | 0 | 0 | 0 | 4 (30-44%) | 0 | 0 | 0 | 0 | 0 | 1 (1-5%) | 2 (6-15%) | 1 (1-5%) | 3 (16-29%) | 1 (1-5%) | 4 (30-44%) | 0 | 4 (30-44%) | herbicide rating, SETVI (Setaria viridis [21]): 4 (30-44%); herbicide rating, TRZAW (Triticum aestivum [22]): 0; herbicide rating, VERPE (Veronica persica [23]): 0; herbicide rating, ZEAMX (Zea mays [24]): 0 |
